Laboratory results: patent publication US20050107289A1, “Anti-microbial peptides and compositions” (priority 2001, published 2005)
Read-outs that look alike come from different tables or passages of the source. Non-standard residues stand in square brackets, D forms with d. Residues, ends and D or L forms follow the SMILES beside them.

Assays:
[1] = system: S. aureus (MRSA) ATCC 33591; format: cell-based, Staphylococcus aureus; conditions: Table 9
Procedure, shortened: (§1)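 Broth macro- or microdilution MIC per NCCLS M7-A4. Peptides were serially 2-fold diluted in 5% DMSO/9% aqueous sucrose, about 400–2 μg/ml (dilution-series concentrations). Overnight cultures were diluted 4000-fold to an inoculum of about 2.5×10^5 cfu/ml.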

murine red blood cells = assay: Red blood cell hemolysis; format: cell-based, mouse
Procedure, shortened: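 Hemolysis read as A560 of supernatant, scaled between saline (0%) and 1% Triton X-100 (100%) controls; peptides were serially diluted onto 5% murine red cells in saline plus 10% FBS and incubated 30 min at 37° C.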

[2] = system: vancomycin-resistant Enterococus faecalis (VRE)(ATCC 51575); format: cell-based, Enterococcus faecalis; parameters: key to VRE (in vitro activity): peptide concentration in μg/ml (broth dilution assay); conditions: Table 9
Procedure, shortened: as §1

[3] = media b: cation adjusted Meuller Hinton broth (MHBII)
[4] = media c: Brain Heart Infusion (BHI)
[5] = media a: anti-microbial media-3 (AM-3)

SMILES	MRSA (in vitro activity) [1, 3]	RBC Hemolysis (HD50) (murine red blood cells)	VRE (in vitro activity) [2, 4]	MRSA (in vitro activity) [1, 5]	VRE (in vitro activity) ([2]; media a: AM-3)	MRSA (in vitro activity) ([1]; media b: cation adjusted Meuller Hinton broth (MHBII), listed as [KSKLILIL] (57))	VRE (in vitro activity) ([2]; media b: MHBII)
CC(C)C[C@@H]1NC(=O)[C@@H](Cc2c[nH]c3ccccc23)NC(=O)[C@H](CCCCN)NC(=O)[C@@H](CO)NC(=O)[C@H](CCCCN)NC(=O)[C@@H](CO)NC(=O)[C@H](CCCCN)NC(=O)[C@@H](Cc2c[nH]c3ccccc23)NC1=O [SEQ ID NO:91, [KSKSKWLW]] (cyclo(K[dS]K[dS]K[dW]L[dW]))	6	200	12				
CC[C@@H](C)[C@H]1NC(=O)[C@H](C)NC(=O)[C@@H](Cc2c[nH]c3ccccc23)NC(=O)[C@H](C(C)C)NC(=O)[C@@H](CCCNC(=N)N)NC(=O)[C@H](CCCCN)NC1=O [SEQ ID NO:113, [KRVWAI]] (cyclo(K[dR]V[dW]A[dI]))	>200	>200	>200				
CC(C)C[C@@H]1NC(=O)[C@@H](Cc2c[nH]c3ccccc23)NC(=O)[C@H](CCCCN)NC(=O)[C@@H](Cc2ccccc2)NC(=O)[C@H](CCCCN)NC(=O)[C@@H](Cc2c[nH]c3ccccc23)NC1=O [SEQ ID NO:128, [KFKWLW]] (cyclo(K[dF]K[dW]L[dW]))		>61		14	43		
NCCCC[C@@H]1NC(=O)[C@@H](Cc2ccccc2)NC(=O)[C@H](CCC(N)=O)NC(=O)[C@@H](Cc2ccccc2)NC(=O)[C@H](CCCCN)NC(=O)[C@@H](CC(N)=O)NC(=O)[C@H](Cc2c[nH]c3ccccc23)NC(=O)[C@@H](CC(N)=O)NC1=O [SEQ ID NO:98, [KFQFKNWN]] (cyclo(K[dF]Q[dF]K[dN]W[dN]))	>200	>280	>200				
CC(C)C[C@H]1NC(=O)[C@H](Cc2c[nH]c3ccccc23)NC(=O)[C@@H](CCCNC(=N)N)NC(=O)[C@H](CCCCN)NC(=O)[C@@H](Cc2c[nH]cn2)NC(=O)[C@H](CCCCN)NC(=O)[C@@H](CC(C)C)NC(=O)[C@H](Cc2c[nH]c3ccccc23)NC1=O [SEQ ID NO:74, [KRWLWLKH]] (cyclo(K[dR]W[dL]W[dL]K[dH]))		>130		5	7		
CC(C)C[C@@H]1NC(=O)[C@@H](Cc2c[nH]c3ccccc23)NC(=O)[C@H](CCCCN)NC(=O)[C@@H](Cc2c[nH]cn2)NC(=O)[C@H](CCC(N)=O)NC(=O)[C@@H](Cc2c[nH]cn2)NC(=O)[C@H](CCCCN)NC(=O)[C@@H](Cc2c[nH]c3ccccc23)NC1=O [SEQ ID NO:87, [KHQHKWLW]] (cyclo(K[dH]Q[dH]K[dW]L[dW]))	6	200	12				
CC(C)C[C@H]1NC(=O)[C@H](CCCCN)NC(=O)[C@@H](CO)NC(=O)[C@H](CCCCN)NC(=O)[C@@H](CC(C)C)NC(=O)[C@H](Cc2ccc(O)cc2)NC(=O)[C@@H](CC(C)C)NC(=O)[C@H](Cc2ccc(O)cc2)NC1=O [SEQ ID NO:62, [KSKLYLYL]] (cyclo(K[dS]K[dL]Y[dL]Y[dL]))	100	>200	200				
CC(C)C[C@H]1NC(=O)[C@H](C)NC(=O)[C@@H](CCCCN)NC(=O)[C@H](CO)NC(=O)[C@@H](CO)NC(=O)[C@H](CCCCN)NC(=O)[C@@H](CC(C)C)NC(=O)[C@H](C)NC1=O [SEQ ID NO:78, [KSSKALAL]] (cyclo(K[dS]S[dK]A[dL]A[dL]))	>240	>240	>240				
NCCCC[C@@H]1NC(=O)[C@@H](Cc2ccc(O)cc2)NC(=O)[C@H](CCC(N)=O)NC(=O)[C@@H](Cc2ccc(O)cc2)NC(=O)[C@H](CCCCN)NC(=O)[C@@H](CC(N)=O)NC(=O)[C@H](Cc2c[nH]c3ccccc23)NC(=O)[C@@H](CC(N)=O)NC1=O [SEQ ID NO:94, [KYQYKNWN]] (cyclo(K[dN]W[dN]K[dY]Q[dY]))	>200	>200	>200				
CC(C)C[C@H]1NC(=O)[C@H](CCCCN)NC(=O)[C@@H](CC(N)=O)NC(=O)[C@H](CCC(N)=O)NC(=O)[C@@H](CC(N)=O)NC(=O)[C@H](CCCCN)NC(=O)[C@@H](CC(C)C)NC(=O)[C@H](Cc2c[nH]c3ccccc23)NC1=O [SEQ ID NO:90, [KNQNKLWL]] (cyclo(K[dN]Q[dN]K[dL]W[dL]))	>200	>200	>200				
CC(C)C[C@@H]1NC(=O)[C@@H](Cc2c[nH]c3ccccc23)NC(=O)[C@H](CCC(N)=O)NC(=O)[C@@H](Cc2c[nH]c3ccccc23)NC(=O)[C@H](CCCCN)NC(=O)[C@@H](Cc2c[nH]c3ccccc23)NC1=O [SEQ ID NO:116, [KWQWLW]] (cyclo(K[dW]Q[dW]L[dW]))		>16		12	12		
CC[C@H](C)[C@@H]1NC(=O)[C@@H](CC(C)C)NC(=O)[C@H](CCCCN)NC(=O)[C@@H](CO)NC(=O)[C@H](CCCCN)NC(=O)[C@@H](CC(C)C)NC(=O)[C@H]([C@@H](C)CC)NC(=O)[C@@H](CC(C)C)NC1=O [SEQ ID NO:57, [KSKLILIL]] (cyclo(I[dL]I[dL]K[dS]K[dL]))		>200	>200			200	
CC(C)C[C@H]1NC(=O)[C@H](CCCCN)NC(=O)[C@@H](CCCNC(=N)N)NC(=O)[C@H](CCCCN)NC(=O)[C@@H](CC(C)C)NC(=O)[C@H](Cc2ccccc2)NC(=O)[C@@H](CC(C)C)NC(=O)[C@H](Cc2ccccc2)NC1=O [SEQ ID NO:52, [KRKLFLFL]] (cyclo(K[dR]K[dL]F[dL]F[dL]))	11	>180	22				
CC(C)C[C@@H]1NC(=O)[C@@H](Cc2c[nH]c3ccccc23)NC(=O)[C@H](CCC(N)=O)NC(=O)[C@@H](Cc2c[nH]cn2)NC(=O)[C@H](CCCCN)NC(=O)[C@@H](Cc2c[nH]c3ccccc23)NC1=O [SEQ ID NO:120, [KHQWLW]] (cyclo(K[dH]Q[dW]L[dW]))		115.0		43	57		
CC(C)C[C@H]1NC(=O)[C@H](Cc2ccc(O)cc2)NC(=O)[C@@H](CCCCN)NC(=O)[C@H](CO)NC(=O)[C@@H](CO)NC(=O)[C@H](CCCCN)NC(=O)[C@@H](CC(C)C)NC(=O)[C@H](Cc2ccc(O)cc2)NC1=O [SEQ ID NO:83, [KSSKYLYL]] (cyclo(K[dS]S[dK]Y[dL]Y[dL]))	85	>340	170				
CC(C)C[C@H]1NC(=O)[C@H](Cc2c[nH]c3ccccc23)NC(=O)[C@@H](CCCCN)NC(=O)[C@H](CO)NC(=O)[C@@H](CO)NC(=O)[C@H](CCCCN)NC(=O)[C@@H](CC(C)C)NC(=O)[C@H](Cc2c[nH]c3ccccc23)NC1=O [SEQ ID NO:82, [KSSKWLWL]] (cyclo(K[dS]S[dK]W[dL]W[dL]))	27	>220	27				
CC(C)C[C@H]1NC(=O)[C@H](CCCCN)NC(=O)[C@@H](CO)NC(=O)[C@H](CCCCN)NC(=O)[C@@H](CC(C)C)NC(=O)[C@H](Cc2c[nH]c3ccccc23)NC(=O)[C@@H](CC(C)C)NC(=O)[C@H](Cc2c[nH]c3ccccc23)NC1=O [SEQ ID NO:61, [KSKLWLWL]] (cyclo(K[dS]K[dL]W[dL]W[dL]))	15	125	15				
C[C@H]1NC(=O)[C@H](CCCCN)NC(=O)[C@@H](CC(N)=O)NC(=O)[C@H](CCC(N)=O)NC(=O)[C@@H](C)NC(=O)[C@H](CCCCN)NC(=O)[C@@H](CC(N)=O)NC(=O)[C@H](Cc2c[nH]c3ccccc23)NC1=O [SEQ ID NO:96, [KAQNKAWN]] (cyclo(K[dA]Q[dN]K[dA]W[dN]))	>200	>200	>200				
CC(C)C[C@H]1NC(=O)[C@H](CCCCN)NC(=O)[C@@H](CO)NC(=O)[C@H](CCCCN)NC(=O)[C@@H](CC(C)C)NC(=O)[C@H](CCC(N)=O)NC(=O)[C@@H](CC(C)C)NC(=O)[C@H](CCC(N)=O)NC1=O [SEQ ID NO:104, [KSKLQLQL]] (cyclo(K[dS]K[dL]Q[dL]Q[dL]))	>200	>200	>200				
CC(C)C[C@H]1NC(=O)[C@H](CCCCN)NC(=O)[C@@H](Cc2c[nH]cn2)NC(=O)[C@H](CCCCN)NC(=O)[C@@H](CC(C)C)NC(=O)[C@H](Cc2ccccc2)NC(=O)[C@@H](CC(C)C)NC(=O)[C@H](Cc2ccccc2)NC1=O [SEQ ID NO:48, [KHKLFLFL]] (cyclo(K[dH]K[dL]F[dL]F[dL]))	7	>220	13				
CC(C)C[C@@H]1NC(=O)[C@@H](Cc2c[nH]c3ccccc23)NC(=O)[C@H](C(C)C)NC(=O)[C@@H](CCCNC(=N)N)NC(=O)[C@H](CCC(N)=O)NC(=O)[C@@H](CCCNC(=N)N)NC(=O)[C@H](Cc2c[nH]c3ccccc23)NC(=O)[C@@H](Cc2c[nH]c3ccccc23)NC1=O [SEQ ID NO:70, [QRVWLWWR]] (cyclo(Q[dR]V[dW]L[dW]W[dR]))	12.5	30					6.3
